Laboratory results published in patent US4371523A, “Reducing the aggregation of insulin in solution” (The Regents of the University of California, priority 1980, dated 1983).
Entries after “also recorded” stand apart in the source; their conditions may differ.

Assays:
pork sodium-insulin = target: T1, pork sodium-insulin (Sus scrofa, UniProt P01315); assay: Controlled shaking of Na insulin solutions in test tubes, optical density at 600 nm; type: physicochemical; conditions: for Optical Density ± 1 × SE: Na insulin 50 U/ml, OD at 600 nm
T1 construct: pork sodium-insulin crystals (U.1000 neutral sodium insulin special pork obtained from Eli Lilly & Company); purchased Eli Lilly & Company U.1000 neutral sodium insulin special pork
Description: In vitro testing of single component neutral pork zinc insulin was undertaken with a number of added agents. Solutions at about neutral pH and at acid pH were tested. In addition, some testing was also undertaken with Na insulin. The tests were conducted using plastic tybes (5 ml test tubes, Sarstedt, sealed by plastic caps covered with paraffin) each containing 2 ml of the insulin solutions noted below. The tubes were continuously agitated in a metabolic shaking incubator (Dubnoff E.C.A. Co.) at 60 to 80 r.p.m. and 37° C. for periods up to sixteen days. The sodium insulin solutions were made by dissolving pork sodium-insulin crystals (U.1000 neutral sodium insulin special pork obtained from Eli Lilly & Company) in the same diluting fluid as utilized with the zinc insulin. The solutions were adjusted to neutral or acid pH as indicated above. Final insulin concentration in all solutions was 2 mg/ml (50 U/ml). Insulin solutions with amino acid added were prepared by addition of the dry amino acids (Sigma Company) to the neutral zinc or sodium insulin solutions. Final concentration of the amino acid additives was 7 mg per ml of insulin solution. pH was adjusted, when necessary, to 7.5 for neutral insulin mixtures and to 3.3-3.5 for acid insulin mixtures. The various insulin solutions, both as made up without additives and with additives, were shaken as noted above for up to sixteen days, at which time the solutions were examined with an optical densitometer at a wave length 600 nm. The optical density (OD) of each solution was an indication of the amount of aggregation present after the shaking period. The higher the optical density, the greater the aggregation in that solution.

[1] = target: T2, single component neutral pork zinc insulin (Sus scrofa, UniProt P01315); assay: Controlled shaking of zinc insulin solutions in test tubes, optical density at 600 nm; type: physicochemical; conditions: for Optical Density ± 1 × SE: zinc insulin 50 U/ml, OD at 600 nm
T2 construct: single component, neutral, pork, zinc-insulin (U.500 regular Iletin II., Eli Lilly & Company); purchased Eli Lilly & Company U.500 regular Iletin II
Description: In vitro testing of single component neutral pork zinc insulin was undertaken with a number of added agents. Solutions at about neutral pH and at acid pH were tested. In addition, some testing was also undertaken with Na insulin.
The tests were conducted using plastic tybes (5 ml test tubes, Sarstedt, sealed by plastic caps covered with paraffin) each containing 2 ml of the insulin solutions noted below. The tubes were continuously agitated in a metabolic shaking incubator (Dubnoff E.C.A. Co.) at 60 to 80 r.p.m. and 37° C. for periods up to sixteen days.
The zinc insulin solutions were prepared by appropriate dilutions of highly concentrated (500 U/ml) single component, neutral, pork, zinc-insulin (U.500 regular Iletin II., Eli Lilly & Company). The unbuffered diluting fluid contained glycerin, 16 mg/ml, and phenol, 2 mg/ml of distilled water (Eli Lilly & Company). […] Final insulin concentration in all solutions was 50 U/ml (2 mg/ml).
Insulin solutions with amino acid added were prepared by addition of the dry amino acids (Sigma Company) to the neutral zinc or sodium insulin solutions. Final concentration of the amino acid additives was 7 mg per ml of insulin solution. pH was adjusted, when necessary, to 7.5 for neutral insulin mixtures and to 3.3-3.5 for acid insulin mixtures.
Several non-amino carboxylic acids, i.e., lactic acid, acetic acid, and citric acid, were added under the same conditions of concentration and pH as described for the amino acids.
The various insulin solutions, both as made up without additives and with additives, were shaken as noted above for up to sixteen days, at which time the solutions were examined with an optical densitometer at a wave length 600 nm. The optical density (OD) of each solution was an indication of the amount of aggregation present after the shaking period. The higher the optical density, the greater the aggregation in that solution.

insulin = conditions: supplemental material added to insulin solution; cited from earlier work
[2] = pH 3.3-3.5, shaken 16 days at 37° C.
[3] = pH 7.4, shaken 16 days at 37° C., higher OD = greater aggregation
[4] = agent added to insulin solution at acid pH 3.3-3.5

T1 sequence (P01315 25-54 limits assumed): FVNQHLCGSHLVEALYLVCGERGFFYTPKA
T1 sequence (P01315 88-108 limits assumed): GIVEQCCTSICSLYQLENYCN
T2 sequence (P01315 25-54 limits assumed): as the sequence (P01315 25-54 limits assumed) above

## N[C@@H](CC(=O)O)C(=O)O [Aspartic Acid]
Pork sodium-insulin; pH 3.5, shaken at 37° C.
  Optical Density ± 1 × SE: 0.10 ± 0.01
Pork sodium-insulin; acid pH
  Protective effect on Na insulin solutions (in words): some protective effect
[1]; agent added to insulin solution at acid pH 3.3-3.5, listed as Aspartic acid
  Protective effect against insulin aggregation (in words): more effective than glutamic acid; also recorded: particularly effective in protecting insulin solutions from aggregation
[1]; agent added to insulin solution at acid pH 3.3-3.5, listed as aspartic acid
  Protective effect against insulin aggregation (in words): prevented the development of any appreciable aggregation throughout the entire experiment
[1]; agent added to insulin solution at neutral pH (about pH 7, pH 7.4)
  Protective effect against insulin aggregation (in words): do not offer any effective protection; also recorded: the protective effect of the agents are no longer apparent
[1]; [2]
  Optical Density ± 1 × SE: 0.084 ± 0.009
[1]; [3]
  Optical Density ± 1 × SE: 0.51 ± 0.078

## CC(C)[C@H](N)C(=O)O [Valine]
[1]; [4]
  Protective effect against insulin aggregation (in words): no protective effect was noted
[1]; [3]
  Optical Density ± 1 × SE: 0.64 ± 0.26

## N=C(N)NCCC[C@H](N)C(=O)O [Arginine]
[1]; [4]
  Protective effect against insulin aggregation (in words): no protective effect was noted
[1]; [3]
  Optical Density ± 1 × SE: 0.074 ± 0.03
[1]; zinc insulin, pH 7.4, 16 days
  Observation of the solution after shaking: Gel formed

## OCc1ccccc1 [benzol alcohol]
insulin
  Effect in preventing the aggregation of insulin in solution over extended periods of time: do not appear to have any appreciable effect

## C[C@H](N)C(=O)O [Alanine]
[1]; [4]
  Protective effect against insulin aggregation (in words): no protective effect was noted
[1]; [2]
  Optical Density ± 1 × SE: 0.41 ± 0.02
[1]; [3]
  Optical Density ± 1 × SE: 0.84 ± 0.04

## O=C(O)CC(O)(CC(=O)O)C(=O)O [Citric Acid]
[1]; [4]
  Protective effect against insulin aggregation (in words): do not prevent aggregation; also recorded: a comparable protective effect was not noted
[1]; agent added to insulin solution at acid pH 3.3-3.5, listed as citrate
  Protective effect against insulin aggregation (in words): exacerbate aggregation

## CC(O)C(=O)O (centres unmarked) [Lactic Acid]
[1]; [4]
  Protective effect against insulin aggregation (in words): do not prevent aggregation; also recorded: a comparable protective effect was not noted
[1]; agent added to insulin solution at acid pH 3.3-3.5, listed as lactate
  Protective effect against insulin aggregation (in words): exacerbate aggregation

## O=C(O)CN(CCN(CC(=O)O)CC(=O)O)CC(=O)O [ethylene diamine tetraacetic acid]
insulin
  Effect in preventing the aggregation of insulin in solution over extended periods of time: do not appear to have any appreciable effect

## N[C@@H](CCC(=O)O)C(=O)O [Glutamic Acid]
Pork sodium-insulin; pH 3.5, shaken at 37° C.
  Optical Density ± 1 × SE: 0.13 ± 0.03
[1]; agent added to insulin solution at acid pH 3.3-3.5, listed as Glutamic acid
  Protective effect against insulin aggregation (in words): prevented the development of any appreciable aggregation throughout the entire experiment
[1]; agent added to insulin solution at acid pH 3.3-3.5, listed as glutamic acid
  Protective effect against insulin aggregation (in words): particularly effective in protecting insulin solutions from aggregation
[1]; agent added to insulin solution at neutral pH (about pH 7, pH 7.4), listed as Glutamic acid
  Protective effect against insulin aggregation (in words): do not offer any effective protection
[1]; agent added to insulin solution at neutral pH (about pH 7, pH 7.4), listed as glutamic acid
  Protective effect against insulin aggregation (in words): the protective effect of the agents are no longer apparent
[1]; [2]
  Optical Density ± 1 × SE: 0.123 ± 0.02
[1]; [3]
  Optical Density ± 1 × SE: 0.717 ± 0.266

## NCCCC[C@H](N)C(=O)O [Lysine]
[1]; [4]
  Protective effect against insulin aggregation (in words): no protective effect was noted
[1]; [2]
  Optical Density ± 1 × SE: 0.35 ± 0.13
[1]; [3]
  Optical Density ± 1 × SE: 0.25 ± 0.08

## NC(=O)C[C@H](N)C(=O)O [Asparagine]
[1]; [4]
  Protective effect against insulin aggregation (in words): no protective effect was noted
[1]; [3]
  Optical Density ± 1 × SE: 0.87 ± 0.13

## [Cl-].[Na+] [sodium chloride]
insulin
  Effect in preventing the aggregation of insulin in solution over extended periods of time: do not appear to have any appreciable effect

## N[C@@H](Cc1c[nH]c2ccccc12)C(=O)O [Tryptophane]
[1]; [4]
  Protective effect against insulin aggregation (in words): no protective effect was noted
[1]; [3]
  Optical Density ± 1 × SE: 0.585 ± 0.200

## N[C@@H](CO)C(=O)O [Serine]
[1]; [4]
  Protective effect against insulin aggregation (in words): no protective effect was noted
[1]; [3]
  Optical Density ± 1 × SE: 0.89 ± 0.02

## O=P(O)(O)O [sodium phosphate]
insulin
  Effect in preventing the aggregation of insulin in solution over extended periods of time: do not appear to have any appreciable effect

## O=C(O)[C@@H]1CCCN1 [Proline]
[1]; [4]
  Protective effect against insulin aggregation (in words): no protective effect was noted
[1]; [3]
  Optical Density ± 1 × SE: 0.665 ± 0.21

## NCC(=O)O [Glycine]
insulin
  Effect in preventing the aggregation of insulin in solution over extended periods of time: do not appear to have any appreciable effect
[1]; [4]
  Protective effect against insulin aggregation (in words): no protective effect was noted
[1]; [2]
  Optical Density ± 1 × SE: 0.28 ± 0.04
[1]; [3]
  Optical Density ± 1 × SE: 0.66 ± 0.095

## CC(=O)O [Acetic Acid]
[1]; [4]
  Protective effect against insulin aggregation (in words): do not prevent aggregation; also recorded: a comparable protective effect was not noted
[1]; agent added to insulin solution at acid pH 3.3-3.5, listed as acetate
  Protective effect against insulin aggregation (in words): exacerbate aggregation

## CSCC[C@H](N)C(=O)O [Methionine]
[1]; [4]
  Protective effect against insulin aggregation (in words): no protective effect was noted
[1]; [3]
  Optical Density ± 1 × SE: 0.74 ± 0.22

## NC(=O)CC[C@H](N)C(=O)O [Glutamine]
[1]; [4]
  Protective effect against insulin aggregation (in words): no protective effect was noted
[1]; [3]
  Optical Density ± 1 × SE: 0.68 ± 0.03

## O=C([O-])O.[Na+] [sodium bicarbonate]
insulin
  Effect in preventing the aggregation of insulin in solution over extended periods of time: do not appear to have any appreciable effect

## N[C@@H](CS)C(=O)O [Cysteine]
insulin
  Effect in preventing the aggregation of insulin in solution over extended periods of time: do not appear to have any appreciable effect
[1]; [2]
  Optical Density ± 1 × SE: 0.39 ± 0.08
[1]; [3]
  Optical Density ± 1 × SE: 0.34 ± 0.13

## N[C@@H](Cc1c[nH]cn1)C(=O)O [Histidine]
insulin
  Effect in preventing the aggregation of insulin in solution over extended periods of time: do not appear to have any appreciable effect
[1]; [4]
  Protective effect against insulin aggregation (in words): no protective effect was noted
[1]; [3]
  Optical Density ± 1 × SE: 0.245 ± 0.08

## Cl [hydrochloric acid]
[1]; [4]
  Protective effect against insulin aggregation (in words): a comparable protective effect was not noted

## C[C@@H](O)[C@H](N)C(=O)O [Threonine]
[1]; [4]
  Protective effect against insulin aggregation (in words): no protective effect was noted
[1]; [3]
  Optical Density ± 1 × SE: 0.76 ± 0.02

## N[C@@H](CSSC[C@H](N)C(=O)O)C(=O)O [cystine]
[1]; [4]
  Protective effect against insulin aggregation (in words): no protective effect was noted

## Na Insulin: pork sodium-insulin crystals (U.1000 neutral sodium insulin special pork, Eli Lilly & Company) in solution, no agent added
Pork sodium-insulin; pH 3.5, shaken at 37° C.
  Optical Density ± 1 × SE: 0.128 ± 0.02
Pork sodium-insulin; pH 7.4, shaken at 37° C.
  Optical Density ± 1 × SE: 0.18 ± 0.02
Pork sodium-insulin; pH 3.3-3.5
  Aggregation of Na insulin (in words): less than at pH 7.4 but is nevertheless appreciable
Pork sodium-insulin; pH 7.4, by 16 days
  Aggregation of Na insulin (in words): also aggregates; also recorded: aggregation is less than that seen for neutral zinc insulin at the same pH

## CC(C)C[C@H](N)C(=O)O [Leucine]
[1]; [4]
  Protective effect against insulin aggregation (in words): no protective effect was noted
[1]; [3]
  Optical Density ± 1 × SE: 0.695 ± 0.03
